“And” between values parts separate entries of the source, which are not always exact repeats. Identical values can stand only once.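 These data come from cells grown in 96-well plates and exposed to compound for 48 hours at five concentrations. GI50 is the concentration that inhibits growth by half. TGI: concentration producing complete growth inhibition.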
Tests used:
Assay in all cases: DTP human tumour cell line panel, 48 h
A498 renal = test system: A498 renal
HCT-116 colon = test system: HCT-116 colon
TK-10 renal = test system: TK-10 renal
ACHN renal = test system: ACHN renal
SK-MEL-5 melanoma = test system: SK-MEL-5 melanoma
NCI-H460 lung = test system: NCI-H460 lung
HCT-15 colon = test system: HCT-15 colon
OVCAR-4 ovarian = test system: OVCAR-4 ovarian
NCI/ADR-RES ovarian = test system: NCI/ADR-RES ovarian
MDA-MB-231 breast = test system: MDA-MB-231 breast

Structure (SMILES)	GI50 (A498 renal) [µM]	TGI (A498 renal) [µM]	GI50 (HCT-116 colon) [µM]	TGI (HCT-116 colon) [µM]	GI50 (TK-10 renal) [µM]	TGI (TK-10 renal) [µM]	GI50 (ACHN renal)	TGI (ACHN renal) [µM]	GI50 (SK-MEL-5 melanoma) [µM]	TGI (SK-MEL-5 melanoma) [µM]	GI50 (NCI-H460 lung)	TGI (NCI-H460 lung) [µM]	GI50 (HCT-15 colon) [µM]	TGI (HCT-15 colon) [µM]	GI50 (OVCAR-4 ovarian) [µM]	TGI (OVCAR-4 ovarian) [µM]	GI50 (NCI/ADR-RES ovarian) [µM]	TGI (NCI/ADR-RES ovarian)	GI50 (MDA-MB-231 breast) [µM]	TGI (MDA-MB-231 breast) [µM]
NNC(=S)N/N=C/c1ccccn1	1.82	9.01	1.66	> 100	1.96	> 100	1.71 µM	> 100	2.63	22.3	1.23 µM	8.54	1.03	> 100	1.67	> 100	2.81	> 100 µM	0.699	> 100
O=C1NC(=N[C@@H]2C[C@H]2c2ccccc2)S/C1=C\c1ccc2ncccc2c1	0.613	4.48	0.839	5.72	0.899	5.58	1.29 µM	8.69	3.93	9.2	1.32 µM	6.79	0.74	> 25	0.854	6.71	2.9	10.1 µM	5.02	22.4
CCCCN(CCCC)C(=O)C(=O)C(C(=O)C(=O)OC)c1nc2ccccc2o1 (stereo not given)		> 100		> 100		> 100		> 100		> 100		> 100		> 100		> 100				
CN1C(=O)CNS1(=O)=O		> 100		> 100		> 100		> 100		> 100		> 100		> 100						
CCOC(=O)c1c2c(n(Cc3ccccc3)c1C)-c1nc[nH]c1C(=O)C2=O	16.3	30.1	16	30.4	16.2	31.3	14.8 µM	27.9	15.9	29.8	11.2 µM	23.2	14.8	29.1	13.5	26.3			13.1	28.3
CC[C@@]1(O)C(=O)OCc2c1cc1n(c2=O)Cc2cc3c(OC)cccc3nc2-1	0.00301			> 100		50	0.00175 µM and < 0.215 µM		0.0229	0.311	0.000801 µM and < 0.215 µM	1.27		> 60		11.9		> 100 µM		> 100
N#CCC(=O)N/N=C(/C(=O)Nc1ccccc1)C1C(=O)N(c2ccccc2)N=C1N (stereo not given)		> 100		> 100		> 100		> 100		> 100		> 100		> 100		> 100				
Cn1cnc([N+](=O)[O-])c1Sc1nccn1-c1ccccc1		> 100		> 100		> 100		> 100		> 100		> 100				> 100				
S=c1sc2sc(=S)sc2s1		48.2		> 100		> 100		> 100		> 100		47.7		> 100		> 100				
CCOC(=O)c1sc(Nc2cc(Cl)ccc2Cl)nc1C		> 100		> 100		> 100		> 100				> 100		> 100		> 100				
COc1ncnn2ccc(-c3cnc4nc(C)n(Cc5nnc(C(C)F)o5)c4c3)c12 (stereo not given)	0.163	0.62	0.041	> 100	0.367	> 100	0.24 µM	> 100			0.242 µM	> 100	0.199		0.278	0.995	0.409	> 29.2 µM	0.278	27
Cc1cn2c(/C=N/NC3=NCCN3)c(-c3ccc(Cl)c([N+](=O)[O-])c3)nc2s1	9.4	21.4	0.949	1.72	1.05	2.7			0.989	2.3	2.34 µM	> 50					7.75	21.5 µM	0.778	1.57
Cc1cc2c(=O)cc(-c3ccc(Cl)c(Cl)c3)oc2c(C(=O)O)c1C				> 100		> 100		> 100		> 100		> 100		> 100		> 100				
Cc1ccc(C)c(N2C(=O)C(=O)C(c3nc4ccccc4s3)C(=O)C2=O)c1		> 100		> 100		> 100		> 100		> 100		> 100		> 100		> 100				
Cc1cc(S(=O)(=O)Nc2n[nH]c(-c3ccc(Cl)cc3)c2C#N)c(S)cc1Cl					> 100	> 100	> 100 µM	> 100	> 100	> 100	> 100 µM	> 100	> 100	> 100	> 100	> 100	> 100	> 100 µM	> 100	> 100
OC1CCC(COC(c2ccccc2)(c2ccccc2)c2ccccc2)O1 (stereo not given)		35.8		30.4		> 10		31.1		30.9		44.5		44.5				48.3 µM		32.1
Cc1cc2c(cc1C)[n+](=O)c(C(=O)CC(=O)C(=O)Nc1ccccc1C)c(C)n2[O-]		> 100		> 100		> 100		> 100		> 100		> 100		> 100		> 100				
COC(=O)c1oc([N+](=O)[O-])c(-c2ccccc2)c1-c1ccccc1		> 100		> 100		> 100		> 100		> 100		> 100				> 100				
O=[N+]([O-])c1cccc(C=NC23CC4CC(CC(C4)C2)C3)c1		> 100		> 100		> 100		> 100		> 100		> 100		> 100		> 100				
CCOc1ccc(N=C2NC(=O)C(CC(=O)Nc3ccc(Cl)cc3Cl)S2)cc1 (stereo not given)		> 100				> 100		> 100		> 100		> 100		> 100		> 100				
COC1OC(CO)C(O)C(NC(=O)N(C)N=O)C1O (stereo not given)		> 100		> 100		> 100		> 100		> 100		> 100		> 100		> 100				

Structure (SMILES)	GI50 (A498 renal) [µM]	TGI (A498 renal) [µM]	GI50 (HCT-116 colon) [µM]	TGI (HCT-116 colon) [µM]	GI50 (TK-10 renal) [µM]	TGI (TK-10 renal) [µM]	GI50 (ACHN renal)	TGI (ACHN renal) [µM]	GI50 (SK-MEL-5 melanoma) [µM]	TGI (SK-MEL-5 melanoma) [µM]	GI50 (NCI-H460 lung)	TGI (NCI-H460 lung) [µM]	GI50 (HCT-15 colon) [µM]	TGI (HCT-15 colon) [µM]	GI50 (OVCAR-4 ovarian) [µM]	TGI (OVCAR-4 ovarian) [µM]	GI50 (NCI/ADR-RES ovarian) [µM]	TGI (NCI/ADR-RES ovarian)	GI50 (MDA-MB-231 breast) [µM]	TGI (MDA-MB-231 breast) [µM]
Cc1ccccc1C(C#N)/C(=N/NC(N)=S)C(=O)Nc1c(C)cccc1C (stereo not given)				> 100		> 100		> 100		> 100		> 100				> 100				
Cc1cc2c(=O)cc(-c3ccc(O)cc3)oc2c(C(=O)O)c1C				> 100		> 100		> 100		> 100		> 100		> 100		> 100				
Cc1cc2c(=O)cc(-c3ccc(Cl)cc3Cl)oc2c(C(=O)O)c1C				> 100		> 100		> 100		> 100		> 100		> 100		> 100				
Oc1c(CCl)cc(Cl)cc1Cc1cc(Cl)cc(Cc2cc(Cl)cc(CCl)c2O)c1O			2.92	10.4	3.9	24.1	3.09 µM	12.8	1.91	4.19	3.26 µM	11	2.88	12	3.1	64.7	2.2	7.29 µM	2.64	7.63
Nc1cc2c(c3ccccc13)C(CCl)CN2C(=O)c1cc2cc(NC(=O)c3cc4ccccc4o3)ccc2[nH]1 (stereo not given)			> 0.11	> 1100			0.000208 µM				0.000351 µM		> 0.11	1.15			> 0.11	0.0078 µM and < 0.11 µM	> 0.11	> 1100
CO[C@@H]1[C@H](N(C)C(=O)c2ccccc2)C[C@@H]2O[C@]1(C)n1c3ccccc3c3c4c(c5c6ccccc6n2c5c31)C(=O)NC4=O	0.206	0.661	0.638	> 100			0.838 µM	> 100	0.797	> 100	0.646 µM	> 100	0.766	> 100	0.7	> 100	5.75	> 100 µM	0.48	> 100
CC(=O)Nc1ccc(S(=O)(=O)N/N=C/c2cc(I)cc([N+](=O)[O-])c2O)cc1		> 100				> 100		> 100		> 100		> 100		> 100		> 100				
CC(=O)OC1C(COC(N)=O)OC(n2c(-c3ccc(C)cc3)cc(-c3ccccc3)c(C#N)c2=O)C(OC(C)=O)C1OC(C)=O (stereo not given)		> 100		> 100		> 100		> 100		> 100		> 100		> 100		> 100				
C=CCC1=C2CCCCC2CCC1=O (stereo not given)		> 100		> 100		> 100		> 100		> 100		> 100		> 100		> 100				
O=C(Cc1c(C(=O)Nc2ccccc2)sc(C(=O)Nc2ccccc2)c1CC(=O)Nc1ccccc1)Nc1ccccc1		> 100		> 100		> 100		> 100		> 100		> 100				> 100				
OCC(O)COc1ccc(F)cc1 (stereo not given)		> 100		> 100		> 100		> 100		> 100		> 100		> 100		> 100				
CC1=CC=C2C(C)(C)CC[C@@H]3OC(=O)[C@H]1[C@]23C		> 100		> 100		> 100		> 100		> 100						> 100				
Cc1ccc(S(=O)OC2c3ccccc3Cc3ccccc32)cc1 (stereo not given)		42.8		35.8		64.3		49		37.1		46.2		44.5		33.2				
COC(=O)CCC(=O)C(CC(=O)OC)C(=O)CCC(=O)NCCc1ccccc1 (stereo not given)		> 100		> 100		> 100		> 100		> 100		> 100		> 100		> 100				
O=C(O)COc1ccc2c3c1C(=O)CCC3CO2 (stereo not given)		> 100		> 100		> 100		> 100		> 100		> 100		> 100		> 100				
O=C(O)c1ccc(NCn2nc(-c3ccccc3O)oc2=S)cc1O			44.9	> 100	> 100	> 100	31.6 µM	99.1	> 100	> 100	95.6 µM	> 100	32	92.6			> 100	> 100 µM	38.9	> 100
CNC(=O)N(CCCC(NC(C)=O)C(=O)NCc1ccccc1)Cc1ccccc1 (stereo not given)		> 100		> 100		> 100		> 100		> 100		> 100		> 100		> 100				
O=C(NCCCNc1cc(-c2cn(-c3ccccc3)nc2-c2cccc(O)c2)ccn1)c1ccc(F)cc1			2.14	7.38	4.47	26.3	3.36 µM	73.6	1.61	3.55	3.14 µM	11.5	1.77	4.7	3.79	> 100	2.2	5.75 µM	2.09	4.98
Cc1cc2c(=O)cc(-c3ccc(C(=O)O)cc3)oc2c(C(N)=O)c1C		> 100		> 100		> 100		> 100		> 100		> 100		> 100		> 100				
COc1ccc(C(=O)O[C@@H]2CCN3CC[C@H](C)[C@H]23)cc1		> 100		> 100		> 100		> 100		> 100		> 100		> 100				> 100 µM		> 100
O=C1C2=C(c3ccccc31)C(c1ccccc1Cl)NC(=S)N2 (stereo not given)		> 100		> 100		> 100		> 100		46		> 100		> 100		> 100				

Source: PubChem BioAssay (NCI)
